Measurements taken from the NIST ThermoML archive (doi:10.1021/je900586f).
Numbers after ± are expanded uncertainties.

Assays:
[1] = for mass density: 298.15 K, 101.33 kPa, Liquid, Vibrating tube method; for Normal melting temperature: Crystal
[2] = refractive index (Na D-line) (dimensionless); conditions: 298.15 K; 101.33 kPa; Liquid; Standard Abbe refractometry
[3] = refractive index (Na D-line) (dimensionless); xn = mol fraction of the nth substance listed; conditions: 298.15 K, 101 kPa, Liquid, Standard Abbe refractometry
[4] = xn = mol fraction of the nth substance listed; conditions: 298.15 K, 101 kPa, Liquid, Vibrating tube method

Structure (SMILES): CCCCCCCCCCO [decan-1-ol]
- mass density [1]: 826.59 ± 3.8 kg/m3
- Normal melting temperature [1]: 7.04 ± 0.31 °C
- refractive index [2]: 1.43541 ± 0.001

Structure (SMILES): CCCCCCCCCCO [decan-1-ol] + CCCCCCCCO
- refractive index ([3]; x2 = 0.05): 1.435 ± 0.0008
- refractive index ([3]; x2 = 0.0996): 1.4346 ± 0.0008
- refractive index ([3]; x2 = 0.1996): 1.434 ± 0.0008
- refractive index ([3]; x2 = 0.2997): 1.4333 ± 0.0008
- refractive index ([3]; x2 = 0.4005): 1.4325 ± 0.0008
- refractive index ([3]; x2 = 0.5006): 1.4318 ± 0.0008
- refractive index ([3]; x2 = 0.6005): 1.431 ± 0.0008
- refractive index ([3]; x2 = 0.7006): 1.4301 ± 0.0008
- refractive index ([3]; x2 = 0.8002): 1.4293 ± 0.0008
- refractive index ([3]; x2 = 0.9): 1.4284 ± 0.0008
- refractive index ([3]; x2 = 0.9507): 1.4279 ± 0.0008

Structure (SMILES): CCCCCCCCN(CCCCCCCC)CCCCCCCC [trioctylamine] + CCCCCCCCCCO
- refractive index ([3]; x1 = 0.0504): 1.437 ± 0.0008
- refractive index ([3]; x1 = 0.0998): 1.4384 ± 0.0008
- refractive index ([3]; x1 = 0.2002): 1.4406 ± 0.0008
- refractive index ([3]; x1 = 0.3): 1.4424 ± 0.0008
- refractive index ([3]; x1 = 0.4002): 1.4437 ± 0.0008
- refractive index ([3]; x1 = 0.501): 1.4448 ± 0.0008
- refractive index ([3]; x1 = 0.6008): 1.4457 ± 0.0008
- refractive index ([3]; x1 = 0.7007): 1.4464 ± 0.0008
- refractive index ([3]; x1 = 0.8014): 1.4469 ± 0.0008
- refractive index ([3]; x1 = 0.9022): 1.4473 ± 0.0008
- refractive index ([3]; x1 = 0.9522): 1.4475 ± 0.0008
- mass density ([4]; x1 = 0.0504): 825.4 ± 0.7 kg/m3
- mass density ([4]; x1 = 0.0998): 824 ± 0.7 kg/m3
- mass density ([4]; x1 = 0.2002): 821.6 ± 0.6 kg/m3
- mass density ([4]; x1 = 0.3): 819.3 ± 0.6 kg/m3
- mass density ([4]; x1 = 0.4002): 817.3 ± 0.6 kg/m3
- mass density ([4]; x1 = 0.501): 815.4 ± 0.6 kg/m3
- mass density ([4]; x1 = 0.6008): 813.8 ± 0.6 kg/m3
- mass density ([4]; x1 = 0.7007): 812.3 ± 0.6 kg/m3
- mass density ([4]; x1 = 0.8014): 810.7 ± 0.6 kg/m3
- mass density ([4]; x1 = 0.9022): 809.2 ± 0.6 kg/m3
- mass density ([4]; x1 = 0.9522): 808.6 ± 0.6 kg/m3

Structure (SMILES): CCCCCCCCN(CCCCCCCC)CCCCCCCC [trioctylamine] + CCCCCCCCO
- refractive index ([3]; x1 = 0.0497): 1.4311 ± 0.0008
- refractive index ([3]; x1 = 0.1): 1.433 ± 0.0008
- refractive index ([3]; x1 = 0.2): 1.4359 ± 0.0008
- refractive index ([3]; x1 = 0.3004): 1.4389 ± 0.0008
- refractive index ([3]; x1 = 0.4001): 1.4415 ± 0.0008
- refractive index ([3]; x1 = 0.4997): 1.4432 ± 0.0008
- refractive index ([3]; x1 = 0.6012): 1.4445 ± 0.0008
- refractive index ([3]; x1 = 0.701): 1.4453 ± 0.0008
- refractive index ([3]; x1 = 0.8002): 1.4461 ± 0.0008
- refractive index ([3]; x1 = 0.8962): 1.447 ± 0.0008
- refractive index ([3]; x1 = 0.9496): 1.4474 ± 0.0008
- mass density ([4]; x1 = 0.0497): 820.8 ± 0.6 kg/m3
- mass density ([4]; x1 = 0.1): 819.7 ± 0.6 kg/m3
- mass density ([4]; x1 = 0.2): 817.8 ± 0.6 kg/m3
- mass density ([4]; x1 = 0.3004): 816 ± 0.6 kg/m3
- mass density ([4]; x1 = 0.4001): 814.5 ± 0.6 kg/m3
- mass density ([4]; x1 = 0.4997): 813.1 ± 0.6 kg/m3
- mass density ([4]; x1 = 0.6012): 811.9 ± 0.6 kg/m3
- mass density ([4]; x1 = 0.701): 810.7 ± 0.6 kg/m3
- mass density ([4]; x1 = 0.8002): 809.7 ± 0.6 kg/m3
- mass density ([4]; x1 = 0.8962): 808.7 ± 0.6 kg/m3
- mass density ([4]; x1 = 0.9496): 808.1 ± 0.6 kg/m3

Structure (SMILES): CCCCCCCCO [octan-1-ol]
- mass density [1]: 821.76 ± 3.7 kg/m3
- Normal melting temperature [1]: -15.30 ± 0.31 °C
- refractive index [2]: 1.42754 ± 0.001

Structure (SMILES): CCCCCCCCN(CCCCCCCC)CCCCCCCC [trioctylamine]
- mass density [1]: 807.46 ± 3.6 kg/m3
- Normal melting temperature [1]: -34.42 ± 0.31 °C
- refractive index [2]: 1.44758 ± 0.001
